Among the data in US8859598B2, “1, 2, 4-oxadiazoles azetidine derivatives as sphingosine-1 phosphate receptors modulators” (Allergan, Inc., priority 2012, dated 2014) are EC50 values, retold here.

This experiment addresses T1, human S1P1 receptor (Homo sapiens, UniProt P21453).
T1 construct: expressed in transfected cells; membranes used
In words: GTP γ35S binding assay for S1P1 activity. Type of experiment: biochemical. As to conditions: membranes of cells stably expressing the S1P1 receptor, test concentrations 0.08 to 5,000 nM. On the procedure:
Compounds were synthesized and tested for S1P1 activity using the GTP γ^35S binding assay. These compounds may be assessed for their ability to activate or block activation of the human S1P1 receptor in cells stably expressing the S1P1 receptor.
GTP γ^35S binding was measured in the medium containing (mM) HEPES 25, pH 7.4, MgCl2 10, NaCl 100, dithitothreitol 0.5, digitonin 0.003%, 0.2 nM GTP γ^35S, and 5 μg membrane protein in a volume of 150 μl. Test compounds were included in the concentration range from 0.08 to 5,000 nM unless indicated otherwise. Membranes were incubated with 100 μM 5′-adenylylimmidodiphosphate for 30 min, and subsequently with 10 μM GDP for 10 min on ice. Drug solutions and membrane were mixed, and then reactions were initiated by adding GTP γ^35S and continued for 30 min at 25° C. Reaction mixtures were filtered over Whatman GF/B filters under vacuum, and washed three times with 3 mL of ice-cold buffer (HEPES 25, pH7.4, MgCl2 10 and NaCl 100). Filters were dried and mixed with scintillant, and counted for ^35S activity using a β-counter. Agonist-induced GTP γ^35S binding was obtained by subtracting that in the absence of agonist. Binding data were analyzed using a non-linear regression method. In case of antagonist assay, the reaction mixture contained 10 nM […] in the presence of test antagonist at concentrations ranging from 0.08 to 5000 nM.
For orientation: Binding of GTPγS marks nucleotide exchange on a G protein.

One may read the EC50 as the concentration giving half of the maximal effect. Higher therefore signals lower potency in that assay.

T1 sequence (P21453 whole entry): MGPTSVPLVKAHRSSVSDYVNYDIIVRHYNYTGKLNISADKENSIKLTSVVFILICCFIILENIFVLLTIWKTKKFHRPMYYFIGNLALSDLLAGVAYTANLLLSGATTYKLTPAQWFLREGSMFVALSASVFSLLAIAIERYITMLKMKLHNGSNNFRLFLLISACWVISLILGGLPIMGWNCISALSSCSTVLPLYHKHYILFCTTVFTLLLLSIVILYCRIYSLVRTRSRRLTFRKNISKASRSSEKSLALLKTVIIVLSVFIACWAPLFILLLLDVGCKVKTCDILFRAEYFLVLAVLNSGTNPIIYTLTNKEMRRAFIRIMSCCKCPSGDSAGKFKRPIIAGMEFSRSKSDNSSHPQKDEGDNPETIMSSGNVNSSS

In turn, `O=C(O)C1CN(Cc2ccc(-c3noc(CCCCc4ccccc4)n3)cc2)C1` [Compound 1, 1-{4-[5-(4-Phenylbutyl)-1,2,4-oxadiazol-3-yl]benzyl}azetidine-3-carboxylic acid] had an EC50 of 483 nM.
